Laboratory results from patent US11692004B2, “Substituted pyrazole compound, preparation method therefor, pharmaceutical composition and medical use thereof” (JIANGSU VANGUARD PHARMACEUTICAL CO., LTD., priority 2018, dated 2023).
In brackets after ≈: the same amount, converted by molar mass.

How the values were obtained:
[1] = Solubility test in distilled water; type: physicochemical; settings: thermodynamic from solid, 25° C.
Description: Test method: the dry compound was slowly dissolved into about 0.5 ml distilled water in a 5 ml EP tube until saturation (turbid after ultra-sonic vibration at 25° C.). The solution was filtered and moved to another clean 5 ml EP tube (pre-weighed) and the tube was weighed again to calculate the solution weight. The solution was freeze dried. The remaining solute was weighed to calculate the solvent weight, and then the compound solubility in water was determined.

[2] = system: MCAO model (middle cerebral artery ischemia-reperfusion); experiment: In vivo drug efficacy test of MCAO model; settings: SD rats, MCAO 2 h then reperfusion, tail vein infusion 30 min; for Cerebral infarction area (%): TTC staining, infarct area to whole brain area; for Improvements of nerve function (%): score at 24 h versus model control
Cytotoxic test (MTT) = type: cell-based; settings: rat, PC12 cells, 48 h incubation
Description: (§1) After resuscitating, the PC12 cells were cultured in RPMI-1640 containing 10% horse serum and 5% Fetus Bovine Serum (FBS) under 5% CO2 at 37° C. for two weeks. The medium was changed every other day. The compounds were diluted into solutions of 12.5, 25, 50, 100, 200, 300 μM with culture medium (except examples 33-45 with additional solutions of 400 μM and 500 μM). The PC12 cells were seeded into a 96-well plate at a density of 1.2×10^4 cells/well and cultured in a 37° C., 5% CO2 incubator for 24 hours. Remove the medium, the cells were added with the compound solutions of different concentrations as test solutions for another 48 h incubation in a 37° C., 5% CO2 incubator.
(§2) After the incubation, the wells were added with 20 μL 5 mg/mL MTT and incubated for 4 hours at 37° C. Carefully removed the medium and added 150 μL DMSO. The plates were placed on an enzyme-labeled instrument and vibrated for 5 min. The absorbance Atest solution were obtained at 490 nm with the Ablank of the well without cells and the Acontrol of the well with untreated cells. The survival rates of the cells in every well were calculated by the formula as Survival rate (%)=(Atest solution−Ablank)/(Acontrol−Ablank)*100%

PC12 cells = experiment: In-vitro neuroprotection-I (H2O2 injury, MTT); type: cell-based; settings: Rattus norvegicus, PC-12, 48 h compound, then 200 μM H2O2 24 h, MTT survival rate
Description: All samples were made into 60 mM stock solution by DMSO, which were 200 times diluted to 300 μM by medium. And the final concentration was further diluted into different concentrations by media.
Control: Normal cell-plating and same cell medium as other group. 24 hours later, the medium was discarded. Incubate the cell in new media for 24 hours. No compound and hydrogen peroxide treatment. Other steps were the same as the sample test as mentioned below did.
Blank: no cell plating, cell medium, and other steps were the same as the sample test as mentioned below did.
as §1, with “(except that” for “(except”, “The PC 12” for “The PC12”, “of 8×10^3” for “of 1.2×10^4”, “hours. Removed” for “hours. Remove”, “incubator. After the incubation, apart from the blank and control groups, the wells (including 0 μM drug group) were added to the medium-prepared 200 μM H2O2, and continued for another 24 h incubation in a 37° C., 5% CO2 incubator.” for “incubator.”
as §2, with “rate” for “rates”, “well” for “well were calculated”, “survival” for “as Survival”, “solution−Ablank)/(Acontrol−Ablank)*100%.” for “solution−Ablank)/(Acontrol−Ablank)*100%”

[3] = Stability studies (high humidity, illumination, high temperature, seven days); type: physicochemical; settings: 25° C. ± 2° C., 60% ± 5 RH, 4500 ± 500 LX
Description: The stability of samples from some embodiments were examined under high humidity (25° C.±2° C., 90%±5RH), illumination (25° C.±2° C., 60%±5RH, 4500±500LX), high temperature (60° C.±2° C., 60%±5RH), which were stored in the stability incubator for seven days, for the changes of related substances and contents, as shown in Table 2.

[4] = system: B6SJL-Tg (SOD1*G93A) mice; experiment: In vivo efficacy test of ALS model; parameters: key to Rotarod Time / PaGE: “+” indicates a significant difference compared with the solvent group, p < 0.05; settings: for Plasma SOD concentration on day 28th(U/mL): ELISA; for PaGE / Rotarod Time: versus solvent group; for Fall latency in rota-rod test and PaGE test: 28-day drug intervention
Description: B6SJL-Tg (SOD1*G93A) mice were intraperitoneally administered single-doses once a day for 4 consecutive weeks. The weight of the mice was determined before and after the administration every week. The motor function of the mice was determined by rota-rod and PaGE tests with the time points before and after 4-week administration. The mice plasma was collected and detected for SOD levels through ELISA. The Index Evaluation described below was used to evaluate the efficacy of the compounds of the examples in ALS model and to what extent the compounds of the examples improve the survival period and motor activity.
The animals were delivered to the SPF animal room and raised for more than one week. Five days before the test, the mice were accustomed to a round of tests per day. The mice were randomly divided into groups according to their body weights, 8 mice for each group. Among them, the solvent group was given with the same volume of solvent (physiological saline) every day.
The mice were administered with a volume of 10 ml/kg.
i.p once a day for 4 weeks.
Index evaluation time started from the beginning of the experiment to the death of the animals.
1) ALS onset time: For 2 consecutive observation days, the mice appeared limb, tremor and/or limb weakness at tail suspension were determined as the ALS onset. The determination of limb weakness: the mice were placed on the rota-rod device with a diameter of 3.5 cm. The speed is set to 15 rpm to record the longest fall latency divided by 420 s. The mice of less 420 s were determined as limb weakness.
2) Rota-rod Test: The mice were placed on the rota-rod device with a diameter of 3.5 cm. The speed is set to 12 rpm to record the longest fall latency divided by 180 s. The latency of more than 180 s was recorded as 180 s, and actual time was recorded when less than 180 s.
3) Paw Grip Endurance (PaGE) Test: The mice were placed on the traditional wire grid. The grid was gently shaken to cause the mice to tighten its grip on the wires then inverted, and time recording commenced. The time was recorded until the mouse lost its grip in hind limbs divided by 90 s. The time more than 90 s was recorded as 90 s, while the time less than 90 s was recorded by its actual time. The test was completed in triplicate with the highest score used for analysis.
5) Plasma SOD concentration: The blood was collected and mixed with EP tube containing heparin before and after administration at the 4th week, and then centrifuged at 1000 g for 10 min. The plasma was collected and stored in aliquots at −70° C. ELISA kit was used to detect plasma SOD levels.

[5] = 86 μmol/kg i.p. once a day for 4 weeks

SMILES	solubility [1] [µg/mL]	Cerebral infarction area (%) [2] [%]	Improvements of nerve function (%) [2] [%]	IC50 at 48 h (Cytotoxic test (MTT)) [µM]	EC50 (PC12 cells) [µM]	Content Drop, Illumination [3] [%]	Stability, Illumination: changes of related substances and contents [3]	Onset time [4, 5] [days]	Survival time [4, 5] [days]	Plasma SOD concentration on day 28th(U/mL) [4, 5]	PaGE [4, 5]	Rotarod Time [4, 5]	Onset time(d) [4, 5]	Fall latency in rota-rod test and PaGE test [4]
Cc1cc(OC2O[C@H](CO)[C@@H](O)[C@H](O)[C@@H]2O)n(-c2ccccc2)n1 (stereo partly drawn) [Compound 34, 1-phenyl-3-methyl-5-O-D-mannoside-pyrazole]	12300 (≈ 36.6 mM)	14.5	21.1	> 300	120	–	–	–	–	–	–	–	–	–
CC1=NN(c2ccccc2)C(=O)C1 [Edaravone, edaravone, reference compound]	< 1000	20.1	15.7	–	171	4	dropped significantly	116.14 ± 7.82	147.00 ± 8.94	153.88 ± 9.91* U/mL	+	+	–	–
Cc1cc(OCOC(=O)c2cc(N(C)C)ccc2O)n(-c2ccccc2)n1 [Compound 24, (3-methyl-1-phenylpyrazole-5-)oxymethyl-(2-hydroxy-5-N,N-dimethyl)benzoate]	–	–	–	272	44.7	–	–	–	147.71 ± 8.94	150.55 ± 11.88* U/mL	+	+	118.29 ± 6.32* d	better than the marketed drug edaravone
Cc1cc(OC2O[C@H](CO)[C@@H](O)[C@H](O)[C@H]2O)n(-c2ccccc2)n1 (stereo partly drawn) [Compound 33, 1-phenyl-3-methyl-5-O-D-glucoside-pyrazole]	10100 (≈ 30 mM)	14.0	24.0	> 300	112	–	–	–	149.88 ± 8.37	155.18 ± 15.37* U/mL	+	+	118.25 ± 5.87* d	better than the marketed drug edaravone
Cc1cc(OC2O[C@H](CO)[C@H](O)[C@H](O)[C@H]2O)n(-c2ccccc2)n1 (stereo partly drawn) [Compound 35, 1-phenyl-3-methyl-5-O-D-galactoside-pyrazole]	18000 (≈ 53.5 mM)	15.8	22.2	> 300	87.9	–	–	–	–	–	–	–	–	–
Cc1cc(OC2C[C@@H](O)[C@H](O)[C@@H](CO)O2)n(-c2ccccc2)n1 (stereo partly drawn) [Compound 36, 1-phenyl-3-methyl-5-O-D-(2-deoxy)glucoside-pyrazole]	4200 (≈ 13.1 mM)	14.1	24.1	> 300	79.6	–	–	–	–	–	–	–	–	–

Continued, in another order:

solubility [1] [µg/mL]	SMILES	Cerebral infarction area (%) [2] [%]	Improvements of nerve function (%) [2] [%]	IC50 at 48 h (Cytotoxic test (MTT)) [µM]	EC50 (PC12 cells) [µM]	Content Drop, Illumination [3] [%]	Stability, Illumination: changes of related substances and contents [3]	Onset time [4, 5] [days]	Survival time [4, 5] [days]	Plasma SOD concentration on day 28th(U/mL) [4, 5]	PaGE [4, 5]	Rotarod Time [4, 5]	Onset time(d) [4, 5]	Fall latency in rota-rod test and PaGE test [4]
6500 (≈ 17.2 mM)	CC(=O)N[C@H]1C(Oc2cc(C)nn2-c2ccccc2)O[C@H](CO)[C@@H](O)[C@@H]1O (stereo partly shown) [Compound 37]	17.6	17.5	> 500	90	–	–	–	–	–	–	–	–	–
5100 (≈ 16.6 mM)	Cc1cc(OC2O[C@H](CO)[C@@H](O)[C@H]2O)n(-c2ccccc2)n1 (stereo partly drawn) [Compound 39, 1-phenyl-3-methyl-5-O-D-riboside-pyrazole]	18.0	16.9	> 500	55	–	–	–	–	–	–	–	–	–
3800 (≈ 12.4 mM)	Cc1cc(OC2OC[C@@H](O)[C@H](O)[C@H]2O)n(-c2ccccc2)n1 (stereo partly drawn) [Compound 38, 1-phenyl-3-methyl-5-O-D-xylopyranoside-pyrazole]	17.8	17.0	> 500	–	–	–	–	–	–	–	–	–	–
3000 (≈ 10.3 mM)	Cc1cc(OC2C[C@H](O)[C@@H](CO)O2)n(-c2ccccc2)n1 (stereo partly drawn) [Compound 40, 1-phenyl-3-methyl-5-O-D-(2-deoxy)riboside-pyrazole]	18.5	16.8	> 500	54.7	–	–	–	–	–	–	–	–	–
